Source: DBAASP
Values after ≈ are worked out from the molar mass of the structure shown. Blank lines part the entries; values can stand above or below the compound they belong to.

Tests used:
Assay in all cases: ≥ marks a high value that may be exact or a test limit, other limits are often not marked, values filed in µg/mL are converted to µM
[1] = test system: Bacillus subtilis ATCC 23857
[2] = test system: Escherichia coli ATCC 25922
[3] = test system: Staphylococcus aureus ATCC 33591
Staphylococcus aureus = test system: Staphylococcus aureus
Escherichia coli = test system: Escherichia coli
Bacillus cereus = test system: Bacillus cereus
[4] = test system: Enterococcus faecalis ATCC 29212
[5] = test system: Staphylococcus epidermidis ATCC 12228
[6] = test system: Pseudomonas aeruginosa ATCC 27853
[7] = test system: Klebsiella pneumoniae ATCC 700603
[8] = test system: Staphylococcus aureus ATCC 25923
[9] = test system: Acinetobacter baumannii ATCC 19606
[10] = test system: Staphylococcus aureus ATCC 29213
[11] = test system: Candida albicans ATCC 2002
Pseudomonas aeruginosa = test system: Pseudomonas aeruginosa
Acinetobacter baumannii = test system: Acinetobacter baumannii
[12] = test system: Candida albicans ATCC 10231
Bacillus subtilis = test system: Bacillus subtilis
Salmonella typhimurium = test system: Salmonella typhimurium

- MIC [1]: ≥ 128 µM
- MIC [2]: > 128 µM
Structure (SMILES): CC[C@H](C)[C@H](NC(=O)CNC(=O)[C@H](CCCN=C(N)N)NC(=O)[C@H](CCCCN)NC(=O)[C@@H](NC(=O)CNC(=O)[C@H](CCCN=C(N)N)NC(=O)[C@H](CCCCN)NC(=O)[C@@H](NC(=O)CN)[C@@H](C)CC)[C@@H](C)CC)C(=O)N[C@@H](CCCCN)C(=O)N[C@@H](CCCN=C(N)N)C(N)=O [GIKRGIKRGIKR]

- MIC [3]: ≥ 64 µM
- MIC [2]: 32 µM (≈ 71.9 µg/mL)
Structure (SMILES): CC[C@H](C)[C@H](NC(=O)[C@H](CCC(N)=O)NC(=O)[C@H](CCSC)NC(=O)[C@H](CCC(N)=O)NC(=O)[C@@H](NC(=O)[C@H](CCCCN)NC(=O)[C@H](Cc1ccccc1)NC(=O)[C@H](Cc1c[nH]c2ccccc12)NC(=O)[C@@H](N)CCCN=C(N)N)[C@@H](C)CC)C(=O)N[C@@H](CCCN=C(N)N)C(=O)N[C@@H](CCCN=C(N)N)C(=O)N[C@@H](Cc1c[nH]c2ccccc12)C(=O)N[C@@H](CCCCN)C(=O)N[C@@H](CC(N)=O)C(=O)N[C@@H](CCCCN)C(=O)N[C@@H](CCCCN)C(N)=O [RWFKIQMQIRRWKNKK]

- MIC (Staphylococcus aureus): > 59.4 µM
- MIC (Escherichia coli): 59.4 µM (≈ 128 µg/mL)
- MIC (Bacillus cereus): ≥ 59.4 µM
Structure (SMILES): CC(C)C[C@H](NC(=O)[C@@H](N)Cc1ccccc1)C(=O)NCC(=O)N[C@@H](CCCCN)C(=O)N[C@H](C(=O)N[C@@H](Cc1ccccc1)C(=O)N[C@@H](CCCCN)C(=O)NCC(=O)N[C@H](C(=O)N[C@@H](CO)C(=O)N[C@@H](CCCCN)C(=O)N[C@H](C(=O)N[C@@H](Cc1ccccc1)C(=O)N1CCC[C@H]1C(=O)N[C@@H](C)C(=O)N[C@H](C(=O)N[C@@H](Cc1ccccc1)C(=O)NCC(=O)N[C@@H](CCCCN)C(=O)N[C@H](C(=O)O)C(C)C)C(C)C)C(C)C)C(C)C)C(C)C [FLGKVFKGVSKVFPAVFGKV]

- MIC [4]: 16 µM (≈ 24.3 µg/mL)
- MIC [5]: 4 µM (≈ 6.08 µg/mL)
- MIC [6]: 8 µM (≈ 12.2 µg/mL)
- MIC [1]: 4 µM (≈ 6.08 µg/mL)
- MIC [7]: 16 µM (≈ 24.3 µg/mL)
- MIC [8]: 8 µM (≈ 12.2 µg/mL)
- MIC [2]: 16 µM (≈ 24.3 µg/mL)
- MIC [9]: 16 µM (≈ 24.3 µg/mL)
Structure (SMILES): C[C@@H](O)[C@H](NC(=O)[C@H](CCCCN)NC(=O)[C@H](Cc1c[nH]c2ccccc12)NC(=O)[C@H](CCCN=C(N)N)NC(=O)[C@H](CCCCN)NC(=O)[C@H](Cc1c[nH]c2ccccc12)NC(=O)[C@H](Cc1c[nH]c2ccccc12)NC(=O)CN)C(=O)N[C@@H](Cc1c[nH]c2ccccc12)C(=O)N[C@@H](Cc1c[nH]c2ccccc12)C(N)=O [GWWKRWKTWW]

- MIC [4]: > 64 µM
- MIC [10]: > 64 µM
- MIC [2]: > 64 µM
- MIC [9]: > 64 µM
Structure (SMILES): CC[C@H](C)[C@H](NC(=O)[C@H](Cc1cnc[nH]1)NC(=O)[C@H](CCCN=C(N)N)NC(=O)[C@H](CC(C)C)NC(=O)[C@H](CC(N)=O)NC(=O)[C@@H](N)CC(N)=O)C(=O)N[C@H](C(=O)N[C@@H](C)C(=O)N[C@@H](Cc1c[nH]c2ccccc12)C(=O)N[C@H]1CSSC[C@@H](C(=O)N[C@@H](C)C(=O)N[C@@H](CCCN=C(N)N)C(=O)N[C@@H](Cc2ccccc2)C(=O)N[C@@H](CCCCN)C(=O)N2CCC[C@H]2C(=O)N[C@@H](CCC(N)=O)C(=O)O)NC(=O)[C@H](C(C)C)NC(=O)[C@H](C)NC(=O)[C@H](CC(C)C)NC(=O)[C@H](CO)NC(=O)[C@H](Cc2ccc(O)cc2)NC(=O)[C@H](CC(N)=O)NC(=O)[C@H](CCCN=C(N)N)NC(=O)[C@H](CC(N)=O)NC(=O)[C@H](CCCCN)NC1=O)C(C)C [NNLRHIVAWCKNRNYSLAVCARFKPQ]

- MIC [1]: ≥ 32 µM
- MIC [2]: 128 µM (≈ 182 µg/mL)
Structure (SMILES): CC[C@H](C)[C@H](NC(=O)CN)C(=O)N[C@@H](CCCN=C(N)N)C(=O)N[C@@H](CCCN=C(N)N)C(=O)NCC(=O)N[C@H](C(=O)N[C@H](C(=O)N[C@@H](CCCCN)C(=O)N[C@H](C(=O)N[C@H](C(=O)N[C@@H](CCCCN)C(=O)N[C@@H](CCCN=C(N)N)C(N)=O)[C@@H](C)CC)[C@@H](C)CC)[C@@H](C)CC)[C@@H](C)CC [GIRRGIIKIIKR]

- MIC [4]: > 512 µM
- MIC [5]: 64 µM (≈ 71.1 µg/mL)
- MIC [6]: 64 µM (≈ 71.1 µg/mL)
- MIC [1]: ≥ 32 µM
- MIC [7]: 256 µM (≈ 285 µg/mL)
- MIC [8]: 256 µM (≈ 285 µg/mL)
- MIC [2]: 256 µM (≈ 285 µg/mL)
- MIC [9]: > 512 µM
Structure (SMILES): CC(C)C[C@H](NC(=O)CN)C(=O)N[C@@H](CC(C)C)C(=O)N[C@@H](CCCCN)C(=O)N[C@@H](CCCN=C(N)N)C(=O)N[C@@H](CC(C)C)C(=O)N[C@@H](CCCCN)C(=O)N[C@H](C(=O)N[C@@H](CC(C)C)C(=O)N[C@@H](C)C(N)=O)[C@@H](C)O [GLLKRLKTLA]

- MIC (Staphylococcus aureus): 7.6 µM (≈ 16 µg/mL)
- MIC (Escherichia coli): > 122 µM
- MIC (Bacillus cereus): 15.2 µM (≈ 32 µg/mL)
Structure (SMILES): CC(C)C[C@H](NC(=O)[C@H](CCCCN)NC(=O)[C@@H](NC(=O)[C@@H](NC(=O)[C@@H](NC(=O)CNC(=O)[C@H](CC(C)C)NC(=O)[C@@H](N)Cc1ccccc1)C(C)C)C(C)C)C(C)C)C(=O)N[C@@H](C)C(=O)N[C@@H](CO)C(=O)N[C@@H](CCCCN)C(=O)N[C@H](C(=O)N[C@@H](Cc1ccccc1)C(=O)N1CCC[C@H]1C(=O)N[C@@H](C)C(=O)N[C@H](C(=O)N[C@@H](Cc1ccccc1)C(=O)NCC(=O)N[C@@H](CCCCN)C(=O)N[C@H](C(=O)O)C(C)C)C(C)C)C(C)C [FLGVVVKLASKVFPAVFGKV]

- MIC (Staphylococcus aureus): > 59.5 µM
- MIC (Escherichia coli): 59.5 µM (≈ 128 µg/mL)
- MIC (Bacillus cereus): ≥ 59.5 µM
Structure (SMILES): CC(C)C[C@H](NC(=O)[C@@H](N)Cc1ccccc1)C(=O)NCC(=O)N[C@@H](CCCCN)C(=O)N[C@H](C(=O)N[C@@H](Cc1ccccc1)C(=O)N[C@@H](CCCCN)C(=O)N[C@@H](CCCCN)C(=O)N[C@@H](C)C(=O)N[C@@H](CO)C(=O)N[C@@H](CCCCN)C(=O)N[C@H](C(=O)N[C@@H](Cc1ccccc1)C(=O)N1CCC[C@H]1C(=O)N[C@@H](C)C(=O)N[C@H](C(=O)N[C@H](C(=O)NCC(=O)N[C@@H](CCCCN)C(=O)N[C@H](C(=O)O)C(C)C)C(C)C)C(C)C)C(C)C)C(C)C [FLGKVFKKASKVFPAVVGKV]

- MIC [11]: ≥ 84.8 µM
Structure (SMILES): CC[C@H](C)[C@H](NC(=O)[C@@H](NC(=O)[C@@H](NC(=O)[C@@H]1CCCN1C(=O)[C@H](Cc1c[nH]c2ccccc12)NC(=O)[C@H](Cc1ccccc1)NC(=O)[C@H](CCCN=C(N)N)NC(=O)[C@H](CCCCN)NC(=O)[C@@H](NC(=O)[C@@H](N)CCCN=C(N)N)[C@@H](C)CC)C(C)C)C(C)C)C(=O)N[C@@H](CCCN=C(N)N)C(=O)N[C@H](C(=O)N[C@H](C(=O)N[C@H](C(=O)O)C(C)C)C(C)C)[C@@H](C)O [RIKRFWPVVIRTVV]

- MIC (Pseudomonas aeruginosa): 2.03 µM (≈ 4 µg/mL)
- MIC [6]: 0.507 µM (≈ 1 µg/mL)
- MIC [8]: 0.507 µM (≈ 1 µg/mL)
- MIC [2]: 1.01 µM (≈ 2 µg/mL)
- MIC [9]: 1.01 µM (≈ 2 µg/mL)
- MIC (Acinetobacter baumannii): 1.01 µM (≈ 2 µg/mL)
- MIC [12]: 2.03 µM (≈ 4 µg/mL)
Structure (SMILES): CC(C)C[C@H](NC(=O)[C@H](Cc1ccc(O)cc1)NC(=O)[C@H](CCCCN)NC(=O)[C@H](Cc1ccccc1)NC(=O)[C@H](CC(C)C)NC(=O)[C@H](CCCN=C(N)N)NC(=O)[C@H](CCCCN)NC(=O)[C@H](Cc1ccccc1)NC(=O)[C@H](CC(C)C)NC(=O)[C@H](CCCN=C(N)N)NC(=O)[C@@H](N)CCCCN)C(=O)N[C@@H](CCCN=C(N)N)C(=O)N[C@@H](CCCN=C(N)N)C(=O)N[C@@H](Cc1ccccc1)C(=O)O [KRLFKRLFKYLRRF]

- MIC (Staphylococcus aureus): 4 µM (≈ 7.75 µg/mL)
- MIC (Escherichia coli): 4 µM (≈ 7.75 µg/mL)
- MIC (Bacillus subtilis): 2 µM (≈ 3.87 µg/mL)
- MIC (Salmonella typhimurium): 2 µM (≈ 3.87 µg/mL)
Structure (SMILES): CC(C)[C@H](NC(=O)CNC(=O)[C@H](CCCN=C(N)N)NC(=O)[C@@H](NC(=O)[C@H](Cc1c[nH]c2ccccc12)NC(=O)[C@@H](NC(=O)[C@H](CCCN=C(N)N)NC(=O)CNC(=O)[C@H](Cc1c[nH]c2ccccc12)NC(=O)[C@H](CCCN=C(N)N)NC(=O)[C@@H](NC(=O)[C@@H](NC(=O)[C@@H](NC(=O)CN)C(C)C)C(C)C)C(C)C)C(C)C)C(C)C)C(=O)N[C@@H](CCCN=C(N)N)C(=O)N[C@@H](CCCN=C(N)N)C(N)=O [GVVVRWGRVWVRGVRR]

- MIC [1]: ≥ 128 µM
- MIC [2]: > 128 µM
Structure (SMILES): CC[C@H](C)[C@H](NC(=O)[C@H](CCCCN)NC(=O)[C@@H](NC(=O)[C@@H](NC(=O)[C@H](CCCCN)NC(=O)[C@@H](NC(=O)[C@@H](NC(=O)CNC(=O)[C@H](C)NC(=O)[C@@H](NC(=O)[C@@H](NC(=O)CN)[C@@H](C)CC)[C@@H](C)CC)[C@@H](C)CC)[C@@H](C)CC)[C@@H](C)CC)[C@@H](C)CC)C(N)=O [GIIAGIIKIIKI]

- MIC [6]: 7.02 µM (≈ 7.99 µg/mL)
- MIC [8]: 112 µM (≈ 128 µg/mL)
- MIC [2]: 56.2 µM (≈ 63.9 µg/mL)
- MIC [9]: 112 µM (≈ 128 µg/mL)
Structure (SMILES): CC(C)C[C@H](NC(=O)[C@H](CC(C)C)NC(=O)[C@H](CCCCN)NC(=O)[C@H](CCCCN)NC(=O)[C@H](CC(C)C)NC(=O)[C@H](Cc1cnc[nH]1)NC(=O)[C@H](CCCCN)NC(=O)[C@H](CC(C)C)NC(=O)[C@@H](N)Cc1ccccc1)C(N)=O [FLKHLKKLL]
